In ChEMBL document CHEMBL2331203, “Optimization of inhibitors of the tyrosine kinase EphB4. 2. Cellular potency improvement and binding mode validation by X-ray crystallography” (J Med Chem, 2013) one finds IC50 data, which are given here for one compound.

In the experiment the target is T1, Ephrin type-B receptor 4 (Homo sapiens, UniProt P54760).
T1 sequence (P54760 whole entry): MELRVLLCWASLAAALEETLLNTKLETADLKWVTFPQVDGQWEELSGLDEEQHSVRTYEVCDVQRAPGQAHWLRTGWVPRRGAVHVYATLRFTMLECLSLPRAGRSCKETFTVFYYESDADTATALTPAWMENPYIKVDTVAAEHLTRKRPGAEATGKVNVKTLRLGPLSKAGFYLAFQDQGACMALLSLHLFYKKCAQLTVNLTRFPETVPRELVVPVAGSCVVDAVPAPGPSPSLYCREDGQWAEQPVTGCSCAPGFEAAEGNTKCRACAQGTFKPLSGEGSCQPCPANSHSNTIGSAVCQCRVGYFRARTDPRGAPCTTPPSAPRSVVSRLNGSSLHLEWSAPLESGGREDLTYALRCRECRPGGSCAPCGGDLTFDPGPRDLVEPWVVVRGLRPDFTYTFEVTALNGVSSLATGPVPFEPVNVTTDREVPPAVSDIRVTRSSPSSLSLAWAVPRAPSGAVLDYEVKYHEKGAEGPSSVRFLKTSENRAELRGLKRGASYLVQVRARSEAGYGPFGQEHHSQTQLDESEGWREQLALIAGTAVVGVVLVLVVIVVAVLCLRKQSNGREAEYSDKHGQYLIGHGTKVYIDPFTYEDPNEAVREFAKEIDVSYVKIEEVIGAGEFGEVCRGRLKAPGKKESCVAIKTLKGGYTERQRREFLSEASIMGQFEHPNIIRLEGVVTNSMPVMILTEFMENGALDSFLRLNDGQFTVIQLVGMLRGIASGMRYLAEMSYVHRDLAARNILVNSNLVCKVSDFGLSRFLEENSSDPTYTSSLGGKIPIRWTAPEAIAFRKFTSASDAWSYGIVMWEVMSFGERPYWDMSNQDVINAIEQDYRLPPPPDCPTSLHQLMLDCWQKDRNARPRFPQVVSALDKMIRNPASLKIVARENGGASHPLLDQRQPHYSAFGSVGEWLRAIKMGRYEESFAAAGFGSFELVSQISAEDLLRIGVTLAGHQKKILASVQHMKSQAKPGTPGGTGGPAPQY

pIC50: −log10 of the molar value.

Description: Inhibition of human myc-tagged full length EphB4 expressed in MEF cells assessed as inhibition of ephrinB2-Fc-induced autophosphorylation incubated for 90 mins prior to ephrinB2-Fc-induction measured after 2 hrs by sandwich ELISA

As for `CCCCn1c(-c2ccccc2C)cn2c3c(=O)[nH]c(=O)n(C)c3nc12`, the pIC50 is 7.30.

As a reminder, the pIC50 is −log10 of the IC50, conventionally taken in molar units.
